Reference: US20220146526A1, “METHOD FOR EVALUATING SAMPLE, ANALYSIS METHOD, METHOD FOR DETECTING DEGRADED SAMPLE, MARKER FOR DETECTING DEGRADED BLOOD PLASMA SAMPLE, AND MARKER FOR DETECTING DEGRADED SERUM SAMPLE” (SHIMADZU CORPORATION, priority 2019, published 2022)

Legend:
Format in all cases: physicochemical, human
[1] = LC/MS of blood plasma sample: number of times of freezing and thawing (Table F); conditions: for Rate of increase or decrease: detection intensity relative to 1 at 2 times; for Increase or decrease: detection intensity
How it was run: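 Values are detection intensities normalised to 1 for plasma thawed twice, compared against 4, 6 and 10 freeze-thaw cycles. Measured by electrospray LC/MS in MRM mode, formic acid water/acetonitrile mobile phase, column at 40° C. Plasma came from EDTA blood, cooled to 4° C and spun at 3000 rpm for 15 min.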

[2] = LC/MS of blood plasma sample: time from blood collection to centrifugation (Table D); conditions: for Rate of increase or decrease: detection intensity relative to 1 at 15 minutes; for Rate of increase or decrease / Increase or decrease: blood collection to centrifugation; for Increase or decrease: detection intensity; for Rate of increase or decrease (second value, decrease) / Rate of increase or decrease (first value, increase): different from individual to individual, relative to 1 at 15 minutes, collection to centrifugation; for Rate of increase or decrease (second value, decrease): individuals with decrease; for Rate of increase or decrease (first value, increase): individuals with increase
How it was run: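 Detection intensities are expressed relative to samples centrifuged 15 min after collection (=1), measured by electrospray LC/MS in MRM mode (Discovery HS F5-3, 40 °C, formic acid water/acetonitrile gradient at 0.25 mL/min). EDTA blood from a healthy donor was held at 4 °C, centrifuged at 4 °C, 3000 rpm, 15 min, and plasma frozen.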

[3] = LC/MS of blood plasma sample: time from blood collection to cooling of blood (Table E); design: key to Rate of increase or decrease / Rate of increase or decrease (first value, increase): detection intensity relative to ≤1 min to cooling = 1; conditions: for Increase or decrease: detection intensity, blood collection to cooling 5 minutes or more vs 1 minute or less; for Rate of increase or decrease: detection intensity relative to 1 at 1 minute or less, blood collection to cooling 5 minutes
Procedure: At room temperature, 5 mL of blood from a healthy subject was taken into a blood-collecting vessel containing EDTA, and the blood-collecting vessel was inverted for mixing, then cooled, and allowed to stand at 4° C. Here, in order to investigate how the detection intensity of molecules contained in the sample was affected in a case where the time to cooling was set to 5 minutes or more as compared to that in a case where the time to cooling was set to 1 minute or less, preparations were performed under both the former condition and the latter condition. After standing, the blood sample was subjected to centrifugation under a condition of 4° C., 3000 rpm, and 15 minutes. […] After centrifugation, the blood-collecting vessel was left to stand at room temperature for 30 minutes, and the blood plasma was isolated during this 30 minutes. The obtained blood plasma sample was frozen and stored. Here, in order to investigate how the detection intensity of molecules contained in the sample was affected in cases where freezing and thawing was performed 4 times, 6 times, and 10 times after freezing as compared to that in a case where freezing and thawing was performed 2 times after freezing, freezing and thawing was performed under the respective conditions of 2, 4, 6, and 10 times.
Frozen blood plasma samples and serum samples were subjected to GC/MS or LC/MS. In GC/MS, the blood plasma samples and serum samples were subjected to methoxymation and trimethylsilylation and then introduced to GC-MS.
Analysis column: Discovery HS F5-3 (inner diameter of 2.1 mm, length of 150 mm, film thickness of 3 μm) (Sigma-Aldrich)
Column temperature: 40° C.
(A) 0.1% formic acid (dissolved in water)
(B) 0.1% formic acid (dissolved in acetonitrile)
Flow velocity: 0.25 mL/min
Ionization method: electrospray
Temperature: • Desolvation Line (DL) temperature: 250° C. • Heat block temperature: 400° C. • Interface temperature: 300° C.
Gas flow rate: • Nebulizer gas flow rate: 3.0 L/min • Drying gas flow rate: 10.0 L/min • Heating gas flow rate: 10.0 L/min
Mode: multiple reaction monitoring (MRM)
The rate of increase or decrease in Table E is the value of detection intensity relative to 1 that is the detection intensity in a case where the time from blood collection to cooling is set to 1 minute or less.

[4] = LC/MS of serum sample: time from blood collection to centrifugation (Table J); conditions: for Rate of increase or decrease: detection intensity relative to 1 at 15 minutes; for Increase or decrease / Time when compound is affected: serum sample, LC/MS; for Increase or decrease: detection intensity vs 15 minutes from blood collection to centrifugation; for Time when compound is affected: time from blood collection to centrifugation, detection intensity changed by 30% or more vs 15 minutes
How it was run: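 Detection intensities are expressed relative to 1 for samples centrifuged 15 min after blood collection; centrifugation was at room temperature, 3500 rpm, 5 min. Frozen serum was run by electrospray LC-MS in MRM mode, with 0.1% formic acid water/acetonitrile at 0.25 mL/min on a 40 °C F5 column.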

[5] = LC/MS of serum sample: number of times of freezing and thawing (Table M); design: key to Rate of increase or decrease: detection intensity relative to 1 at 2 freeze-thaw cycles; conditions: for Rate of increase or decrease: 6 times of freezing and thawing; for Number of times when compound is affected / Increase or decrease: serum sample, LC/MS; for Number of times when compound is affected: detection intensity changed by 30% or more vs 2 times of freezing and thawing; for Increase or decrease: detection intensity vs 2 times of freezing and thawing
How it was run: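 Values are detection intensities relative to serum thawed twice, versus 4, 6 or 10 freeze-thaw cycles. Serum came from blood spun at room temperature, 3500 rpm for 5 minutes. Analysis: electrospray LC/MS in MRM mode, Discovery HS F5-3 column, 40° C, 0.1% formic acid in water and acetonitrile.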

[6] = GC/MS of blood plasma sample: number of times of freezing and thawing (Table C)
How it was run: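 Values express detection intensity as a ratio to the 2-cycle freeze-thaw sample (=1), compared with 4, 6 and 10 cycles. Healthy-donor EDTA plasma, cooled at ≤1 min or ≥5 min, spun at 4 °C, 3000 rpm, 15 min. Derivatised by methoxymation/trimethylsilylation; GC-MS/MS in MRM mode with electron ionization.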

[7] = GC/MS of blood plasma sample: time from blood collection to centrifugation (Table A); conditions: blood collection to centrifugation
How it was run: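 Read-out is MRM detection intensity by electron-ionization GC/MS on a BPX5 column after methoxymation and trimethylsilylation, expressed relative to a 15-minute collection-to-centrifugation interval. Plasma was prepared from EDTA blood held at 4° C and spun at 4° C, 3000 rpm for 15 minutes, then frozen.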

[8] = GC/MS of serum sample: time from blood collection to centrifugation (Table G); conditions: blood collection to centrifugation
How it was run: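 Values express detection intensity as a ratio to the sample centrifuged 15 minutes after blood collection (taken as 1). Serum was derivatized by methoxymation and trimethylsilylation, then analysed by electron-ionization GC/MS using multiple reaction monitoring on a BPX5 column ramped from 60 to 330° C.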

[9] = GC/MS of serum sample: time from centrifugation to isolation (Table H)
How it was run: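 Values are GC/MS (EI, MRM) detection intensities of methoxymated/trimethylsilylated serum, normalised to 1 for the 30-min sample. Serum was isolated 30 min, 1 h or 6 h after room-temperature centrifugation (3500 rpm, 5 min) of blood.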

[10] = GC/MS of serum sample: number of times of freezing and thawing (Table I); conditions: serum, GC/MS
How it was run: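 Detection intensities are ratios to the value after two freeze–thaw cycles, which is set as 1, compared against 4, 6 and 10 cycles. Analysis used methoxymation and trimethylsilylation derivatization, then GC/MS with EI ionization and multiple reaction monitoring on a BPX5 column. Serum came from blood held at room temperature and spun at 3500 rpm for 5 min.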

[11] = freezing and thawing 4 times vs 2 times
[12] = relative to 1 at 2 times, different from individual to individual, first value (increase)
[13] = relative to 1 at 2 times, different from individual to individual, second value (decrease)
[14] = freezing and thawing 10 times vs 2 times

| Compound | Rate of increase or decrease ([2]; after 4 hours) | Increase or decrease ([2]; after 4 hours vs 15 minutes) | Increase or decrease [3] | Rate of increase or decrease ([1]; freezing and thawing 4 times) | Increase or decrease [1, 11] | Number of times when compound is affected [5] [times] | Increase or decrease [5] | Rate of increase or decrease [3] | Rate of increase or decrease ([2]; after 6 hours) | Increase or decrease ([2]; after 6 hours vs 15 minutes) | other results |
| --- | --- | --- | --- | --- | --- | --- | --- | --- | --- | --- | --- |
| Nc1nc2c(ncn2[C@@H]2O[C@H](COP(=O)(O)O)[C@@H](O)[C@H]2O)c(=O)[nH]1 [Guanosine monophosphate] | 1.89 | Increase | Different from individual | – | – | – | – | – | – | – | Rate of increase or decrease ([1]; freezing and thawing 6 times): 1.95; Increase or decrease ([1]; freezing and thawing 6 times vs 2 times): Increase; Rate of increase or decrease (second value, decrease) ([3]; different from individual to individual, individuals with decrease, relative to 1 at 1 minute or less, collection to cooling 5 minutes): 0.59; Rate of increase or decrease (first value, increase) ([3]; different from individual to individual, individuals with increase, relative to 1 at 1 minute or less, collection to cooling 5 minutes): 1.47 |
| N[C@@H](Cc1ccc(O)c(O)c1)C(=O)O [Dopa] | 2.57 | Increase | Increase | 0.95 | Decrease | 6 | Different from individual | 2.30 | – | – | Rate of increase or decrease ([4]; after 4 hours from blood collection to centrifugation): 0.56; Increase or decrease [4]: Decrease; Time when compound is affected [4]: After 4 hours; Rate of increase or decrease [5, 12]: 1.30; Rate of increase or decrease [5, 13]: 0.31 |
| C[S+](CC[C@H](N)C(=O)[O-])C[C@H]1O[C@@H](n2cnc3c(N)ncnc32)[C@H](O)[C@@H]1O (stereo partly drawn) [S-adenosylmethionine] | – | – | Increase | 1.33 | Increase | – | – | 1.60 | 0.62 | Decrease | – |
| C[C@H](CCC(=O)O)[C@H]1CC[C@H]2[C@@H]3[C@H](O)C[C@@H]4C[C@H](O)CC[C@]4(C)[C@H]3C[C@H](O)[C@]12C [Cholic acid] | – | – | Increase | – | – | 6 | Decrease | 1.36 | – | – | Rate of increase or decrease ([1]; freezing and thawing 10 times): 3.26; Increase or decrease [1, 14]: Increase; Rate of increase or decrease ([2]; after 12 hours): 1.99; Increase or decrease ([2]; after 12 hours vs 15 minutes): Increase; Rate of increase or decrease ([5]; detection intensity relative to 1 at 2 times): 0.57 |
| CN(C)CC(=O)O [Dimethylglycine] | – | – | Decrease | – | – | 6 | Different from individual | 0.66 | – | – | Rate of increase or decrease ([1]; freezing and thawing 10 times): 1.37; Increase or decrease [1, 14]: Increase; Rate of increase or decrease ([6]; detection intensity relative to 1 at 2 times, freezing and thawing 10 times): 1.34; Increase or decrease ([6]; detection intensity, freezing and thawing 10 times vs 2 times): Increase; Increase or decrease ([2]; after 12 hours vs 15 minutes): Different from individual; Rate of increase or decrease (second value, decrease) ([2]; after 12 hours): 0.63; Rate of increase or decrease (first value, increase) ([2]; after 12 hours): 1.57; Rate of increase or decrease [5, 12]: 1.34; Rate of increase or decrease [5, 13]: 0.61; Rate of increase or decrease ([7]; detection intensity relative to 1 at 15 minutes, after 12 hours): 1.41; Increase or decrease ([7]; detection intensity, after 12 hours vs 15 minutes): Increase |
| N[C@@H](CCC(=O)N[C@@H](CS)C(=O)O)C(=O)O [5-Glutamylcysteine] | – | Different from individual | Increase | – | Increase | – | – | 1.33 | – | – | Rate of increase or decrease (second value, decrease) ([2]; after 4 hours): 0.70; Rate of increase or decrease (first value, increase) ([2]; after 4 hours): 1.79 |
| NCCc1ccc(O)c(O)c1 [Dopamine] | – | – | Increase | – | – | – | – | 1.43 | 0.53 | Decrease | Rate of increase or decrease ([4]; after 12 hours from blood collection to centrifugation): 1.39; Increase or decrease [4]: Increase; Time when compound is affected [4]: After 12 hours; Rate of increase or decrease ([8]; detection intensity relative to 1 at 15 minutes, after 4 hours): 1.50; Increase or decrease ([8]; detection intensity, after 4 hours vs 15 minutes): Increase; Rate of increase or decrease ([9]; detection intensity relative to 1 at 30 minutes, after 1 hour): 0.64; Increase or decrease ([9]; detection intensity, after 1 hour vs 30 minutes): Decrease; Rate of increase or decrease ([10]; detection intensity relative to 1 at 2 times, freezing and thawing 4 times): 0.53; Increase or decrease ([10]; detection intensity, freezing and thawing 4 times vs 2 times): Decrease |
| Nc1ccn([C@@H]2O[C@H](COP(=O)(O)O)[C@@H](O)[C@H]2O)c(=O)n1 [Cytidine monophosphate] | 1.75 | Increase | Increase | 1.98 | Increase | – | – | 1.34 | – | – | – |
| NCCCC(=O)O [4-Aminobutyric acid] | – | – | Increase | 1.76 | Increase | – | – | 1.50 | 0.70 | Decrease | – |
